In patent US5726164A, “Nanosuspensions for intravenous administration” (Novartis Corporation, priority 1995, dated 1998):
Entries after “also recorded” stand apart in the source; their conditions may differ.

Tests used:
water solubility = format: physicochemical; conditions: at room temperature
From the text: A staurosporin derivative that is sparingly soluble in water is disclosed, for example, in U.S. Pat. No. 5,093,330 and is derived from staurosporin by additional substitution of the free hydrogen atom at the nitrogen of the N-methylamino substituent. Poor solubility in water is a characteristic property of staurosporin derivatives, which renders them unsuitable for intravenous dosage forms.

[1] = cited from earlier work

| SMILES | solubility (water solubility) | water solubility (in words) [1] |
| --- | --- | --- |
| CO[C@@H]1[C@H](N(C)C(=O)c2ccccc2)C[C@H]2O[C@]1(C)n1c3ccccc3c3c4c(c5c6ccccc6n2c5c31)C(=O)NC4 [N-benzoyl-staurosporin] | < 0.1 µg/mL |  |
| CN[C@@H]1C[C@H]2O[C@@](C)([C@@H]1OC)n1c3ccccc3c3c4c(c5c6ccccc6n2c5c31)C(=O)NC4 [staurosporin] |  | particularly poor water solubility; also recorded: extremely low water solubility |
